For data set [1], the system named is leg muscles (lateral gastrocnemius) and systemic muscles (spinotrapezius). Briefly: 18F-FDG uptake PET imaging of muscles, SUV time-activity curve slope analysis. The class given is in vivo, CD IGS rats. Conditions: SF group: insulin 3.39-48.48 IU/kg into tail vein, n = 3, mean ± SD.
The conditions of data set [2]: intraarterial (left femoral artery) intervention, insulin 0.34-0.38 IU/kg, rats.

As to Insulin, in data set [1], the “baseline of the 18F-FDG uptake SUVs” value amounted to 0.7547 ± 0.1208. In addition, the Adverse events result in data set [2] is on record as “No adverse events were observed”.

Values taken from article PMC4767259 (Journal of nuclear medicine : official publication, Society …, 2015).
